Some test systems named below: NCI-H23 lung; A498 renal; HCT-116 colon; HT29 colon; SW-620 colon; ACHN renal; KM12 colon; EKVX NSCLC; MDA-MB-435; CAKI-1 renal.
Common to all, as to test: NCI tumour cell line growth inhibition, 48 h

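Interpolation was linear, between the two tested concentrations surrounding the appropriate level; five concentrations were tested over 48 hours in 96-well plates. At the GI50, growth is halved. TGI denotes the concentration required for complete inhibition of growth.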

Results on eight compounds are retold here after PubChem BioAssay (NCI).

With `O=C(Nc1ccccc1)Nc1ccccc1CNc1nc(Nc2ccc(OCCN3CCCC3)cc2)ncc1Cl`, the GI50 was 7.29 µM in the test on NCI-H23 lung; 1.51 µM in the test with A498 renal; 1.75 µM with HCT-116 colon; 1.66 µM with HT29 colon; 4.67 µM in the test on SW-620 colon; 1.85 µM with ACHN renal. Also, the GI50 in the test on KM12 colon was 2.15 µM; in the test on EKVX NSCLC, 7.02 µM; in the test on MDA-MB-435, 3.1 µM; with CAKI-1 renal it was 6.1 µM. Besides, the TGI is 19.5 µM in the test on NCI-H23 lung; 8.54 µM in the test on A498 renal; 7.12 µM in the test with HCT-116 colon; 8.39 µM with HT29 colon; 12.7 µM with SW-620 colon; 6.83 µM in the test on ACHN renal. The TGI amounted to 7.97 µM in the test with KM12 colon, 15.4 µM in the test on EKVX NSCLC, 9.58 µM in the test on MDA-MB-435 and 12.4 µM in the test on CAKI-1 renal.
Take `CC1SC2(CCCCC2)N(NC(=O)c2[nH]c3ccc(F)cc3c2-c2ccccc2)C1=O` (stereo not given): the GI50 was above 100 µM in the test with NCI-H23 lung; above 100 µM in the test with A498 renal; 64.9 µM in the test on HCT-116 colon; above 100 µM with HT29 colon; above 100 µM in the test on SW-620 colon; above 100 µM with ACHN renal. For the same compound, the GI50 in the test with KM12 colon was 63.7 µM; with EKVX NSCLC it was above 100 µM; in the test on MDA-MB-435 it was above 100 µM; in the test with CAKI-1 renal it was above 100 µM. For the same compound, the TGI in the test on NCI-H23 lung, with A498 renal, in the test with HCT-116 colon, in the test on HT29 colon, with SW-620 colon and in the test with ACHN renal was above 100 µM in each case. For the same compound, the TGI in the test on KM12 colon, in the test on EKVX NSCLC, in the test with MDA-MB-435 and with CAKI-1 renal was above 100 µM each time.
Consider `CCCCCCCCCCCCCCCCCC1=NC(C)(C)CN1CCO`, for which the GI50 in the test on NCI-H23 lung is 1.71 µM; in the test with A498 renal, 13.5 µM; with HCT-116 colon it was 1.63 µM; in the test with HT29 colon, 1.37 µM; in the test on SW-620 colon, 1.75 µM; in the test on ACHN renal it was 1.58 µM. In addition, the GI50 is 1.78 µM in the test on KM12 colon, 3.8 µM in the test with EKVX NSCLC, 1.73 µM in the test with MDA-MB-435 and 1.6 µM in the test with CAKI-1 renal. The TGI in the test on NCI-H23 lung worked out at 3.33 µM; with A498 renal, 32.1 µM; in the test with HCT-116 colon, 3.19 µM; in the test on HT29 colon, 2.66 µM; with SW-620 colon, 3.21 µM; in the test on ACHN renal, 2.99 µM. Moreover, the TGI with KM12 colon was 3.16 µM; with EKVX NSCLC, 18.6 µM; in the test on MDA-MB-435 it was 3.42 µM; in the test with CAKI-1 renal, 3.37 µM.
Turning to `CN1C(=O)C23CC4=CC=CC(O)C4N2C(=O)C1(CO)SS3` (stereo not given), the TGI in the test on NCI-H23 lung amounted to 0.348 µM; in the test on A498 renal it was 0.402 µM; in the test with HCT-116 colon, 0.279 µM; with HT29 colon, 11.4 µM; with SW-620 colon, 0.634 µM; in the test with ACHN renal it was 0.334 µM. Moreover, the TGI was 0.453 µM in the test on KM12 colon, 1.33 µM with EKVX NSCLC, 2.56 µM in the test on MDA-MB-435 and 0.759 µM in the test with CAKI-1 renal.
With `C=CC[PH+](c1ccccc1)c1ccccc1.C=CC[PH+](c1ccccc1)c1ccccc1.[Cl][Pt][Cl]`, the GI50 was 9.14 µM with NCI-H23 lung; 16.5 µM with A498 renal; 3.2 µM with HCT-116 colon; 8.98 µM in the test on HT29 colon; 3.46 µM in the test on SW-620 colon; 3.73 µM in the test on ACHN renal. Moreover, the GI50 in the test with KM12 colon was 15.4 µM; in the test on EKVX NSCLC, 13 µM; in the test with MDA-MB-435, 14.8 µM; in the test with CAKI-1 renal it was 10.6 µM. Moreover, the TGI amounted to 23.9 µM with NCI-H23 lung; 57.8 µM in the test on A498 renal; 10.6 µM with HCT-116 colon; 32.8 µM in the test with HT29 colon; 13.6 µM with SW-620 colon; 12.9 µM with ACHN renal. For the same compound, the TGI with KM12 colon amounted to 35.7 µM; in the test with EKVX NSCLC, 27.4 µM; in the test on MDA-MB-435, 28.9 µM; in the test with CAKI-1 renal, 22.7 µM.
On to `C=C(C)[C@@H]1CCC[C@]2(C(=O)O)CC[C@]3(C)[C@@H](CC[C@@H]4[C@@]5(C)C/C(=C/c6ccncc6)C(=O)C(C)(C)[C@@H]5CC[C@]43C)[C@@H]12`, for which the GI50 is 3.33 µM in the test with NCI-H23 lung; 1.62 µM in the test on A498 renal; 1.36 µM in the test on HCT-116 colon; 2.69 µM with HT29 colon; 3.14 µM with SW-620 colon; 2.84 µM with ACHN renal. The GI50 is 1.8 µM with KM12 colon, 3.2 µM in the test on EKVX NSCLC, 2.6 µM with MDA-MB-435 and 3.34 µM with CAKI-1 renal. Also, the TGI in the test on NCI-H23 lung is 12.9 µM; with A498 renal, 5.01 µM; in the test with HCT-116 colon, 2.8 µM; in the test with HT29 colon it was 9.5 µM; in the test on SW-620 colon, 9.6 µM; with ACHN renal, 11 µM. For the same compound, the TGI in the test on KM12 colon worked out at 3.87 µM; in the test with EKVX NSCLC, 46.3 µM; in the test on MDA-MB-435, 6.88 µM; in the test with CAKI-1 renal, 13.9 µM.
Take `N#CC1(C#N)C2C=CC(C3CCC=C32)C1(C#N)C#N` (stereo not given): the TGI in the test with NCI-H23 lung is above 10 µM; in the test on A498 renal, above 10 µM; in the test with HCT-116 colon, above 10 µM; in the test with HT29 colon, above 10 µM; in the test with SW-620 colon it was 3.32 µM; in the test with ACHN renal, above 10 µM. For the same compound, the TGI with KM12 colon, in the test with EKVX NSCLC, with MDA-MB-435 and with CAKI-1 renal was above 10 µM in each case.
On to `COc1ccc(S(=O)(=O)NCCNc2nccc(-c3c(-c4ccccc4)nc4sccn34)n2)cc1`, for which the GI50 is 7.35 µM in the test on NCI-H23 lung; 1.16 µM with A498 renal; 1.58 µM with HCT-116 colon; 1.72 µM with HT29 colon; 5.03 µM in the test with SW-620 colon; 2.02 µM with ACHN renal. Further, the GI50 is 0.513 µM in the test on KM12 colon, 7.11 µM in the test on EKVX NSCLC, 1.22 µM with MDA-MB-435 and 1.29 µM in the test on CAKI-1 renal. Besides, the TGI in the test on NCI-H23 lung was above 100 µM; in the test with A498 renal, 8.9 µM; in the test with HCT-116 colon, above 100 µM; in the test with HT29 colon, above 100 µM; with SW-620 colon, above 100 µM; in the test on ACHN renal, above 100 µM. For the same compound, the TGI in the test with KM12 colon, with EKVX NSCLC, in the test on MDA-MB-435 and with CAKI-1 renal was above 100 µM in each case.
